Experimental data taken from US20210041447A1, “AZACARBOLINE COMPOUNDS FOR THE DETECTION OF TAU AGGREGATES” (AC IMMUNE SA, priority 2018, published 2021).
pIC50: −log10 of the molar value. Like-named read-outs stand apart in the source and are kept apart here.

What was measured:
Tau = Tau (Homo sapiens, UniProt P10636); test: Tau binding in AD brain homogenate, competition with 18F-labeled Tau binder; parameters: High affinity to Tau: key: −: poor; ∘: moderate; +: good; ++: very good; +++: excellent; settings: for High affinity to Tau: AD brain homogenate, non-radioactive fluorine-19 derivatives; for pIC50: human AD brain homogenate, fluorine-19 derivatives
Protocol: (§1) 20 μg of human Alzheimer disease brain homogenate was incubated with a dilution series of each test compound (1000 to 0.06 nM) in the presence of 800 Bq of ^18F-labeled Tau binder. The samples were shaken at 110 rpm for 45 min at 37° C. Samples were then filtered through GF/B 96 well filter plates and washed twice with 300 μL assay buffer (PBS containing 0.1% BSA and 2% DMSO). Thereafter, filter plates were sealed and a Fuji Film Imaging Plate (BAS-SR2025) was placed on top. The imaging plate was analyzed after overnight exposition using a Fuji Film BAS-5000. Non-specific signal was determined with samples containing ^18F-labeled Tau-reference binder in the presence of assay buffer without brain substrate and competitor. Specific binding was calculated by subtracting the non-specific signal from the measured samples signal. The unblocked ^18F-labeled Tau-binder signal was defined as total binding. IC50 values were calculated by Prism V6 (GraphPad) setting total binding to 100%.

MAO A [1] = molecular target: T1, MAO A (Homo sapiens, UniProt P21397); test: Binding affinity to MAO A in human HC brain homogenate, [18F]fluoroethyl harmine competition; settings: human healthy control brain homogenate; for pIC50: 18F-FEH competition; as to Low affinity to MAO A (HC homogenate): key: −: poor; ∘: moderate; +: good; ++: very good; +++: excellent
T1 construct: from tissue; host or cells: human healthy control brain homogenate
T1 sequence (P21397 1-527): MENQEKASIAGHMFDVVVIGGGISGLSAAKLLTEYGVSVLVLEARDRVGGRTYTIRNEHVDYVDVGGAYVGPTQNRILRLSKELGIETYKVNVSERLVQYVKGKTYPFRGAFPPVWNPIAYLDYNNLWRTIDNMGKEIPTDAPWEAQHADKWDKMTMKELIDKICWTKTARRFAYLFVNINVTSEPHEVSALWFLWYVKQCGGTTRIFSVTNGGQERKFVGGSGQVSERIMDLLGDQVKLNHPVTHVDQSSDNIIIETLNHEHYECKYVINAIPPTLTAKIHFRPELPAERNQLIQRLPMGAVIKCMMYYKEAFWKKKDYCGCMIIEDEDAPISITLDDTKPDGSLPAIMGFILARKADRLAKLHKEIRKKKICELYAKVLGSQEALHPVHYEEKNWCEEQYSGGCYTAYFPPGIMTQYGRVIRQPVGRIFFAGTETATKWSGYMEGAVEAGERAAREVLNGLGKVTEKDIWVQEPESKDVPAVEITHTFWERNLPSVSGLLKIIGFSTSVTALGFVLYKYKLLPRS
Protocol: as §1, with “of” for “of human Alzheimer disease”, “homogenate (without AD pathology)” for “homogenate”, “18F-labeled MAO-A binder ([^18F]fluoroethyl harmine, FEH).” for “^18F-labeled Tau binder.”, “96-well” for “96 well”, “FEH” for “Tau-reference binder”, “FEH” for “Tau-binder”

amyloid-beta = amyloid-beta (Homo sapiens, UniProt P05067); test: Binding affinity to amyloid-beta in AD brain homogenate, competition with 18F-labeled beta-amyloid binder; parameters: Low affinity to amyloid-beta: key: −: poor; ∘: moderate; +: good; ++: very good; +++: excellent
Protocol: as §1, with “beta-amyloid” for “Tau”, “96-well” for “96 well”, “beta-amyloid” for “Tau-reference”, “beta-amyloid binder” for “Tau-binder”

MAO B = molecular target: T2, MAO B (Homo sapiens, UniProt P27338); test: Binding affinity to MAO B in HC brain homogenate, [18F]fluoro deprenyl competition; parameters: Low affinity to MAO B: key: −: poor; ∘: moderate; +: good; ++: very good; +++: excellent
T2 construct: from tissue; host or cells: human brain homogenate without AD pathology
T2 sequence (P27338 1-520): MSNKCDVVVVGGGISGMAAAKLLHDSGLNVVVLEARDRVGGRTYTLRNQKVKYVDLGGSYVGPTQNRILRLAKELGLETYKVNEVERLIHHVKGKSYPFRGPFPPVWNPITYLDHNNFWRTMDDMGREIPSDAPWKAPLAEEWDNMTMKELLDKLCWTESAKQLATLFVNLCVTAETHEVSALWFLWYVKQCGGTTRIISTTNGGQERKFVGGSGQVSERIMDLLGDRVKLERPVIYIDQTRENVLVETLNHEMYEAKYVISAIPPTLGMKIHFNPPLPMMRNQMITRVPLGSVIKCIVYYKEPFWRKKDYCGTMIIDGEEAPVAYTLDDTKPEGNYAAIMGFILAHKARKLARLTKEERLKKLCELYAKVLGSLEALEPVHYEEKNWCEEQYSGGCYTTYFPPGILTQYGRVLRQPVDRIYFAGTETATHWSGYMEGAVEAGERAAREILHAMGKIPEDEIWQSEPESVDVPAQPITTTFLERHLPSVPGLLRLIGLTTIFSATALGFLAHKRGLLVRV
Protocol: as §1, with “human” for “human Alzheimer disease”, “homogenate (without AD pathology)” for “homogenate”, “MAO-B binder ([^18F]fluoro deprenyl).” for “Tau binder.”, “96-well” for “96 well”, “fluoro deprenyl” for “Tau-reference binder”, “fluoro deprenyl” for “Tau-binder”

MAO A [2] = molecular target: T3, MAO A (Mus musculus, UniProt Q64133); test: Binding affinity to MAO A in mouse brain homogenate, [18F]fluoroethyl harmine competition; settings: for pIC50: 18F-FEH competition; as to Low affinity to MAO A (mouse homogenate): key: −: poor; ∘: moderate; +: good; ++: very good; +++: excellent
T3 construct: from tissue; host or cells: mouse brain homogenate
T3 sequence (Q64133 1-526): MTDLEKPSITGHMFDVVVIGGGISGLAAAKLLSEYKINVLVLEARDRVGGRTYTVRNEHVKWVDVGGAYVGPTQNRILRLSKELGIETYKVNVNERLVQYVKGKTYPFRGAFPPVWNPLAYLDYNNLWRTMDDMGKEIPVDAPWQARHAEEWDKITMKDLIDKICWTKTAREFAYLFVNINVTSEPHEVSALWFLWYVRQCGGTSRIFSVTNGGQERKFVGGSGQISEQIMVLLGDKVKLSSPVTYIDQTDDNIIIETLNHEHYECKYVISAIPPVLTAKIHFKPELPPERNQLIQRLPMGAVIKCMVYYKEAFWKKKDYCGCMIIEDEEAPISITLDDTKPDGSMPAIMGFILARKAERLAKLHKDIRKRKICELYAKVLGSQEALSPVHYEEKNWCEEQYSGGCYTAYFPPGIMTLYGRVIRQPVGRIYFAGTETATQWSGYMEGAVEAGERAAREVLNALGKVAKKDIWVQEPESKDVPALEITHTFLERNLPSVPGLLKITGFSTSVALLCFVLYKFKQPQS
Protocol: as §1, with “of” for “of human Alzheimer disease”, “homogenate (without AD pathology)” for “homogenate”, “18F-labeled MAO-A binder ([^18F]fluoroethyl harmine, FEH).” for “^18F-labeled Tau binder.”, “96-well” for “96 well”, “FEH” for “Tau-reference binder”, “FEH” for “Tau-binder”

[3] = human AD brain homogenate; read-out: IC50 in AD brain homogenate (amyloid-beta)
[4] = human HC brain homogenate; 18F-fluoro deprenyl competition; read-out: IC50 in HC brain homogenate (MAO B)

amyloid-beta, sequence (P05067 672-711 limits assumed): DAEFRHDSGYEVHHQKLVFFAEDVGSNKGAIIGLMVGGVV
Tau, sequence (P10636 623-708 limits assumed): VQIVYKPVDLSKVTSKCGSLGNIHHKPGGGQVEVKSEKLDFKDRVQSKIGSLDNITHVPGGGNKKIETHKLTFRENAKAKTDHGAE

Row | Structure (SMILES) | High affinity to Tau (Tau) | pIC50 (Tau) | Low affinity to MAO A (HC homogenate) (MAO A [1]) | pIC50 (MAO A [1]) | Low affinity to amyloid-beta (amyloid-beta; AD brain homogenate) | pIC50 (amyloid-beta; [3]) | Low affinity to MAO B (MAO B; HC brain homogenate) | pIC50 (MAO B; [4]) | Low affinity to MAO A (mouse homogenate) (MAO A [2]) | pIC50 (MAO A [2]) | pIC50 (amyloid-beta; read-out: IC50 in AD brain homogenate (amyloid-beta); human AD brain homogenate) | pIC50 (MAO B; read-out: IC50 in HC brain homogenate (MAO B); human HC brain homogenate; 18F-fluoro deprenyl competition)
1 | Fc1cc(-c2ccc3c(n2)[nH]c2ccncc23)cc(F)n1 [Example F-5] | ++ | 7.54 | +++ | < 6.00 | +++ | < 6.00 | +++ | < 6.00 | +++ | < 6.00 | – | –
2 | Nc1cc(-c2ccc3c(n2)[nH]c2ccncc23)ccc1F [Example F-10] | +++ | – | + | 7.62 | +++ | – | +++ | – | + | 7.60 | 6.17 | < 6.00
3 | Fc1cnc(F)c(-c2ccc3c(n2)[nH]c2ccncc23)c1 [Example F-8] | ++ | 8.05 | +++ | < 6.00 | +++ | < 6.00 | +++ | < 6.00 | +++ | < 6.00 | – | –
4 | Fc1cc(-c2ccc3c(n2)[nH]c2ccncc23)c(F)cn1 [Example F-6] | ++ | 7.77 | +++ | < 6.00 | +++ | < 6.00 | +++ | < 6.00 | +++ | < 6.00 | – | –
5 | N#Cc1ccc(-c2ccc3c(n2)[nH]c2ccncc23)cc1F [Example F-9] | ++ | 7.89 | ++ | 6.48 | +++ | < 6.00 | +++ | < 6.00 | ++ | 6.74 | – | –
6 | Fc1ccc(-c2ccc3c(n2)[nH]c2ccncc23)c(F)n1 [Example F-7] | ++ | 8.00 | +++ | 6.13 | +++ | < 6.00 | ++ | 6.41 | +++ | 6.15 | – | –
7 | Fc1nccc(-c2ccc3c(n2)[nH]c2ccncc23)c1F [Example F-3] | +++ | 8.15 | +++ | < 6.00 | +++ | < 6.00 | +++ | 6.19 | +++ | 6.08 | – | –
8 | N#Cc1cc(-c2ccc3c(n2)[nH]c2ccncc23)ccc1F [Example F-9a] | +++ | 8.06 | – | – | – | – | – | – | ++ | 6.82 | – | –
9 | Fc1nccc(-c2ccc3c(n2)[nH]c2ccncc23)c1Cl [Example F-4] | ++ | 7.59 | +++ | < 6.00 | +++ | < 6.00 | +++ | < 6.00 | +++ | < 6.00 | – | –
